Measured values from US20190209515A1, “Treatment of Bladder Cancer by Intratumoral Injection of Taxane Particles” (CRITITECH, INC., priority 2018, published 2019).
Where “and” joins values, the source holds several entries; their conditions need not be identical. Identical values can stand only once. Entries after “also recorded” stand apart in the source; their conditions may differ. Marks after values point to notes of the source that are not given here. Each block holds one compound with its values, some of them ahead of it.

Tests used:
[1] = Docetaxel dissolution study, methanol/water 15/85, USP Apparatus II; format: physicochemical; conditions: methanol/water 15/85 (v/v), 37° C., pH 7, USP Apparatus II 75 rpm
Experimental: The procedures used to determine the dissolution rates are as follows. […] Beads were transferred to a stainless steel mesh container and placed in the dissolution bath containing methanol/water 50/50 (v/v) media at 37° C., pH 7, and a USP Apparatus II (Paddle), operating at 75 rpm. At 10, 20, 30, 60, and 90 minutes, a 5 mL aliquot was removed, filtered through a 0.22 μm filter and analyzed on a UV/VIS spectrophotometer at 227 nm. Absorbance values of the samples were compared to those of standard solutions prepared in dissolution media to determine the amount of material dissolved. […] At 5, 15, 30, 60, 120 and 225 minutes, a 5 mL aliquot was removed, filtered through a 0.22 μm filter, and analyzed on a UV/VIS spectrophotometer at 232 nm. Absorbance values of the samples were compared to those of standard solutions prepared in dissolution media to determine the amount of material dissolved.
At 5, 15, 30, 60, 120 and 225 minutes, a 5 mL aliquot was removed, filtered through a 0.22 μm filter, and analyzed on a UV/VIS spectrophotometer at 232 nm. Absorbance values of the samples were compared to those of standard solutions prepared in dissolution media to determine the amount of material dissolved.

[2] = Particle size analysis (light obscuration / laser diffraction); format: physicochemical
Experimental: Particle size was analyzed by both light obscuration and laser diffraction methods. An Particle Sizing Systems AccuSizer 780 SIS system was used for the light obscuration method and Shimadzu SALD-7101 was used for the laser diffraction method.
The vials were vortexed for approximately 10 seconds and then sonicated in a sonic bath approximately 1 minute.
The vial was vortexed for approximately 10 seconds and then sonicated in a sonic bath for approximately 2 minutes. This suspension was used for laser diffraction analysis. Unused suspension was poured into a 125 mL particle-free plastic bottle, which was then filled to approximately 100 mL with filtered dispersant. The suspension was vortex for approximately 10 seconds and then sonicated in the sonic bath for approximately 2 minutes. This diluted suspension was used for light obscuration analysis.
A background test was first performed prior to analyzing particles on the AccuSizer 780 SIS. A new particle-free plastic bottle was filled with blank suspension solution by pumping from a reservoir, using a peristaltic pump, through a 0.22 μm Millipore filter and into the bottle. A background analysis was run to ensure the particle/mL count was below 100 particles/mL. […] Once the analysis was completed, the background data was removed and any measurement with less than four counts was removed. […]

[3] = BET specific surface area analysis; format: physicochemical
Experimental: As used herein, the “specific surface area” (SSA) is the total surface area of the taxane particle per unit of taxane mass as measured by the Brunauer-Emmett-Teller (“BET”) isotherm by the following method: a known mass between 200 and 300 mg of the analyte is added to a 30 mL sample tube. […] The automated test is then carried out using the BETWIN® software package and the surface area of each sample is subsequently calculated. As will be understood by those of skill in the art, the “taxane particles” can include both agglomerated taxane particles and non-agglomerated taxane particles; since the SSA is determined on a per gram basis it takes into account both the larger agglomerated and smaller non-agglomerated taxane particles in the composition. The agglomerated taxane particles are defined herein as individual taxane particles that are formed by the agglomeration of smaller particles which fuse together forming the larger individual taxane particles, all of which occurs during the processing of the taxane particles. […]
A known mass between 200 and 300 mg of the analyte was added to a 30 mL sample tube. […] The automated test was then carried out using the BETWIN® software package and the surface area of each sample was subsequently calculated.

[4] = Paclitaxel dissolution study, methanol/water 50/50, USP Apparatus II; format: physicochemical; conditions: methanol/water 50/50 (v/v), 37° C., pH 7, USP Apparatus II 75 rpm
Experimental: Beads were transferred to a stainless steel mesh container and placed in the dissolution bath containing methanol/water 50/50 (v/v) media at 37° C., pH 7, and a USP Apparatus II (Paddle), operating at 75 rpm. […] Absorbance values of the samples were compared to those of standard solutions prepared in dissolution media to determine the amount of material dissolved. […] Absorbance values of the samples were compared to those of standard solutions prepared in dissolution media to determine the amount of material dissolved.
Beads were transferred to a stainless steel mesh container and placed in the dissolution bath containing methanol/water 50/50 (v/v) media at 37° C., pH 7, and a USP Apparatus II (Paddle), operating at 75 rpm. […] Absorbance values of the samples were compared to those of standard solutions prepared in dissolution media to determine the amount of material dissolved.

[5] = not told, pH 4
Experimental: Receptor Fluid: The receptor fluid consisted of 60 vol %/40 vol % methanol/water at pH 4 with 0.01 wt % NaN3 (added as a preservative). […] After mixing and degassing the Receptor Fluid it was filtered through a ZapCap CR 0.2 μm membrane under vacuum; the Receptor Fluid, so filtered, was stirred for an additional 20 minutes under vacuum.

[6] = tested on: UM-UC-3 bladder cancer cell line (ATCC-CRL-1749) tumors; test: Human bladder cancer (UM-UC-3) mouse xenograft study, tumor volume; format: in vivo
Experimental: (§1) Tumor volume was determined with calipers. […] Animals were weighed 2×/week.
At day 18 after tumor implant, when average tumor size was between 50-325 mm^3, animals were sorted into five groups with equal average tumor sizes and were treated as shown in Table 8 below.
The second treatments (2nd cycle) occurred 7 days following first treatment (1st cycle) and third treatments (3rd cycle) occurred 14 days following the first treatment. The docetaxel solution IV was administered via the tail vein.
Vehicle (Control): Diluted 1 ml of the 1% Polysorbate 80/8% Ethanol in normal saline (0.9% Sodium Chloride for Injection) reconstitution solution with 1.5 mL of normal saline (0.9% Sodium Chloride for Injection, USP). […] Vigorously hand shook the vial with inversions for 1 minute. […] Allowed the suspension to sit undisturbed for at least 5 minutes to reduce entrapped air and foam. […] Vortexed to mix.
Tumor volumes were determined 2×/week for the duration of the study (61 days).

[7] = tested on: UM-UC-3 bladder cancer cell line (ATCC-CRL-1749) tumors; test: UM-UC-3 xenograft study, H&E histology and immunohistochemistry of tumor site tissue; format: in vivo, mouse
[8] = mouse, in vivo, iv
Experimental: as §1

[9] = IV docetaxel 3 cycles, of 7 tumors measured, day of death or euthanasia
[10] = IV Docetaxel 3 cycles, individual animals
[11] = IV Docetaxel 3 cycles, 2 animals

Dissolution (30 min) [1]: 11%
Compound: CC(=O)O[C@@]12CO[C@@H]1C[C@H](O)[C@@]1(C)C(=O)[C@H](O)C3=C(C)[C@@H](OC(=O)[C@H](O)[C@@H](NC(=O)OC(C)(C)C)c4ccccc4)C[C@@](O)([C@@H](OC(=O)c4ccccc4)[C@H]21)C3(C)C [Docetaxel Raw Material, docetaxel]

Number Mean [2]: 1.16 um
Surface Area [3]: 10.4 m^2/g
Dissolution (30 min) [4]: 18%
Compound: CC(=O)O[C@H]1C(=O)[C@@]2(C)[C@H]([C@H](OC(=O)c3ccccc3)[C@]3(O)C[C@H](OC(=O)[C@H](O)[C@@H](NC(=O)c4ccccc4)c4ccccc4)C(C)=C1C3(C)C)[C@]1(OC(C)=O)CO[C@@H]1C[C@@H]2O [Paclitaxel Raw Material, paclitaxel]

solubility in the Receptor Fluid [5]: sufficient to maintain sink conditions
Compound: CC(=O)O[C@H]1C(=O)[C@@]2(C)[C@H]([C@H](OC(=O)c3ccccc3)[C@]3(O)C[C@H](OC(=O)[C@H](O)[C@@H](NC(=O)c4ccccc4)c4ccccc4)C(C)=C1C3(C)C)[C@]1(OC(C)=O)CO[C@@H]1C[C@@H]2O [paclitaxel]

Compound: docetaxel
tumor volume ([6]; Docetaxel solution 30 mg/kg IV, 3 weekly cycles, to Day 61 post implant): subsequently increased; also recorded: somewhat effective at treating small tumors, but not very effective in treating large tumors
Necropsy volume [6, 10]: 2872 mm^3 and 1652 mm^3
general histological observations (H&E) ([7]; Docetaxel solution IV 3 cycles): many viable appearing tumor masses with some macrophage and occasional lymphocytic response along with some tumor necrosis
Maximum size of viable invasive carcinoma on the slide >10 mm, number of animals [7, 11]: 2*
Percentage of tumor showing necrosis 11-50%, number of animals [7, 11]: 1
Percentage of tumor showing necrosis 50-90%, number of animals [7, 11]: 1
Macrophage infiltrate density Mild, number of animals ([7]; IV Docetaxel 3 cycles, 2 animals, H&E and CD68): 2
Maximum tumor size on slide [7, 10]: 11 mm and 15 mm
initial animal weight loss [8]: generally greater
signs of peripheral neuropathy [8]: greater signs of peripheral neuropathy
tumors with docetaxel levels above the limit of quantitation (1 ng/g) [9]: 1
